The results in this text go back to PubChem BioAssay AID1626 (SRMLSC, 2009).

The structures appear in SMILES notation. A value given as a limit tells only on which side of the number the result lay.

The subject of the experiment is M. tuberculosis H37Rv growth inhibition. Briefly: M. tuberculosis H37Rv growth inhibitors, H37Rv strain (AID 1626). The settings on record: for IC90: measured here: IC90 against H37Rv; for CC50: measured here: Vero cell cytotoxicity.

The term IC50 denotes the midpoint of a concentration-inhibition curve. What is called IC90 is the concentration needed for an effect of 90%. High values mean weaker potency, low ones greater potency. As usually defined, the CC50 is the concentration at which the toxic effect on the cells reaches its halfway point. Lower therefore signals greater toxicity to the cells. For the compound `O=C(Nc1ccc(Cl)cc1)c1cc2c(cc1O)[nH]c1ccccc12`, the half-inhibitory concentration (IC50) is 1.71 µM, the IC90 came out at 2.29 µM and the CC50 turned out to be 13.4 µM.

Regarding `Cc1cc(NC(=O)c2sccc2C)n(-c2nc3ccccc3[nH]2)n1`, the IC50 was under 0.391 µM, the IC90 is 18.1 µM and the cytotoxic concentration (CC50) turned out to be 31.2 µM.

`CN1CCN(c2ccccc2NC(=O)c2ccc(-c3ccc(Cl)cc3Cl)o2)CC1`: the concentration for half-maximal inhibition (IC50) was 65.2 µM, the IC90 was 82.8 µM and the CC50 is over 40 µM.

Take `COc1cc(N=C2C(=O)N3c4c(cccc42)C(C)=CC3(C)C)cc(OC)c1`: the concentration for half-maximal inhibition (IC50) is 46.9 µM and the 90% effect concentration (IC90) is over 100 µM.

For the compound `COc1ccccc1NC(CC(=O)c1ccccc1)C(=O)OCC(=O)c1ccc(Br)cc1` (centres undefined), the half-maximal inhibitory concentration (IC50) is 13.8 µM and the concentration for an effect of 90% (IC90) turned out to be 21.1 µM.

`O=C(Nc1nnc(-c2ccco2)o1)c1ccc([N+](=O)[O-])s1`: the IC50 is 6.03 µM, the IC90 turned out to be 8.57 µM and the 50% cytotoxic concentration (CC50) was 16.6 µM.

With `O=c1c2cc(Cl)ccc2oc2nc3n(c(=O)c12)CCCS3`, the IC50 was 0.803 µM and the concentration for an effect of 90% (IC90) worked out at 8.71 µM.

As to `CCCNC(=O)NC(=O)COc1ccc(-c2ccc(C#N)cc2)cc1`, the IC50 was 0.754 µM and the IC90 is over 100 µM.

`O=C(OCc1ccc(F)cc1)c1ccc2ccccc2n1`: the 50% inhibitory concentration (IC50) was 8.16 µM and the IC90 is 14.4 µM.

Turning to `Cc1nc2cc(C(=O)OCC(=O)NC34CC5CC(CC(C5)C3)C4)ccc2n1-c1ccccc1`, the IC50 is 7.9 µM and the IC90 amounted to 12.1 µM.

Consider `Clc1ccc(-[n+]2c(-c3cccc(Br)c3)[nH]c3nc4ccccc4nc32)cc1`, for which the IC90 was over 100 µM and the CC50 was over 40 µM.

Consider `c1ccc(-c2nc(N3CCOCC3)c3ccccc3n2)nc1`, for which the 50% inhibitory concentration (IC50) was 5.22 µM, the concentration for an effect of 90% (IC90) was found to be 14.5 µM and the half-maximal cytotoxic concentration (CC50) is over 40 µM.

As for `Cc1cc(C)cc(NC(=O)c2ccc([N+](=O)[O-])o2)c1`, the IC50 is 9.59 µM, the IC90 came to 22.6 µM and the CC50 amounted to 9.81 µM.

`COc1cccc(C2C(C(=O)Nc3nc4ccccc4s3)=C(C)NC3=C2C(=O)CC(C)(C)C3)c1OC` (centres undefined) had an IC90 of over 100 µM and a CC50 of over 40 µM.

In the case of `O=c1[nH][nH]c(-c2ccccc2O)c1C(C[N+](=O)[O-])c1cccc(Cl)c1` (centres undefined), the IC50 was 7.89 µM, the concentration for an effect of 90% (IC90) stood at 13.9 µM and the CC50 was 26.7 µM.

On to `Cc1cc(C)c(N=Cc2c(O)n(-c3nccs3)c(=O)c3ccccc23)c(C)c1`, for which the IC50 was 13.1 µM and the 90% effect concentration (IC90) turned out to be 71.4 µM.

Take `O=[N+]([O-])c1cc(C=Nc2ccc3ccccc3c2)ccc1Br`: the half-maximal inhibitory concentration (IC50) is 5.95 µM and the 90% effect concentration (IC90) is over 100 µM.

With `O=C(CCl)N(c1ccccc1)c1ccccc1`, the concentration for half-maximal inhibition (IC50) is 5.73 µM, the 90% effect concentration (IC90) is 17.6 µM and the CC50 was 1.69 µM.

As to `CC(C)(C)c1ccc(-c2nc(NCc3cccnc3)c3ccccc3n2)cc1`, the IC50 is 4.81 µM, the concentration for an effect of 90% (IC90) was determined as 7.46 µM and the CC50 was over 40 µM.

For `CNC(=O)C(=O)Nc1nc(C23CC4CC(CC(C4)C2)C3)cs1`, the 50% inhibitory concentration (IC50) was 62.7 µM and the IC90 was over 100 µM.

On to `CCCNC(=O)c1nnsc1S(=O)(=O)c1ccc(Cl)cc1`, for which the concentration for half-maximal inhibition (IC50) is 25.2 µM, the IC90 was found to be 28 µM and the CC50 was found to be 16.2 µM.

`Cn1c(-c2ccccc2)c(C(=O)CCl)c2ccccc21`: the 50% inhibitory concentration (IC50) is 1.69 µM, the IC90 was determined as 4.57 µM and the CC50 was 4.07 µM.

Regarding `Cc1ccccc1N1CCN(C2=NC(=O)/C(=C\c3cccs3)S2)CC1`, the IC50 was 14.2 µM, the 90% effect concentration (IC90) stood at 21 µM and the half-maximal cytotoxic concentration (CC50) was over 40 µM.

For the compound `CCCc1cc(NCCCn2ccnc2)n2nc(C)c(-c3ccccc3)c2n1`, the concentration for half-maximal inhibition (IC50) was 6.28 µM, the IC90 was 9.38 µM and the cytotoxic concentration (CC50) was over 40 µM.

As to `COc1cccc(C(=O)Nc2nc(-c3ccccc3)c(-c3ccccc3)o2)c1`, the concentration for half-maximal inhibition (IC50) was under 0.195 µM, the IC90 worked out at 6.62 µM and the cytotoxic concentration (CC50) was over 40 µM.

Consider `Cc1cc(C)c(-c2csc(NC(=O)/C=C/c3cccs3)n2)c(C)c1`, for which the IC50 was 4.66 µM, the concentration for an effect of 90% (IC90) came out at 8.18 µM and the cytotoxic concentration (CC50) is over 40 µM.

Consider `CCOc1ccc(NC(=O)c2ccc(NC(=O)c3cn4c5c(c(N6CCN(C)CC6)c(F)cc5c3=O)OCC4C)cc2)cc1` (centres undefined), for which the IC50 was 2.83 µM, the 90% effect concentration (IC90) stood at 3.17 µM and the CC50 was over 40 µM.

As for `COc1ccc(/C=c2\s/c(=C/C(=O)c3ccc(C)cc3)[nH]c2=O)cc1OC`, the IC50 is 32.6 µM and the IC90 was over 100 µM.

Regarding `O=C(CSCC(=O)N1CCCCC1)Nc1nc(-c2ccc(Cl)s2)cs1`, the 50% inhibitory concentration (IC50) was 44 µM and the 90% effect concentration (IC90) was over 100 µM.

As to `CCOc1cc(/C=C2\SC(=N)N(c3nccs3)C2=O)ccc1OCCN1CCOCC1`, the half-maximal inhibitory concentration (IC50) was 0.393 µM, the IC90 is 1.02 µM and the 50% cytotoxic concentration (CC50) was determined as 19.1 µM.

Take `Cc1ccc(-c2nn(-c3ccccc3)cc2NC(=O)CCl)cc1`: the IC50 is 29.6 µM, the IC90 was over 100 µM and the cytotoxic concentration (CC50) was 27.1 µM.

Turning to `CCOc1ccc(NCC(=O)Nc2ccc(C)cc2C)cc1`, the 50% inhibitory concentration (IC50) was 62.4 µM and the IC90 was over 100 µM.

The compound `O=C(COC(=O)/C=C/c1nc2ccccc2s1)Nc1cccc(Cl)c1Cl` yielded a concentration for an effect of 90% (IC90) of over 100 µM.

Turning to `CC(C)(C)C1CCc2c(sc3nc(SCC(N)=O)nc(N)c23)C1` (centres undefined), the IC50 is 24.8 µM, the 90% effect concentration (IC90) was over 100 µM and the cytotoxic concentration (CC50) was over 40 µM.

In the case of `CCC(=O)Nc1nnc(-c2ccc(OC)cc2)o1`, the IC50 is 6.08 µM and the IC90 was over 100 µM.

As for `COC(=O)/C(=C1/Oc2cc(C)oc(=O)c2S1)C(F)(F)F`, the half-inhibitory concentration (IC50) is 0.698 µM, the IC90 worked out at 23.8 µM and the 50% cytotoxic concentration (CC50) is 6.33 µM.

Consider `CC(=O)Oc1c(-c2ccco2)oc2ccccc2c1=O`, for which the 50% inhibitory concentration (IC50) was 51.4 µM and the IC90 is over 100 µM.

Take `NC1=NC[C@H](CC2CCCCC2)N1CCc1cc(C(F)(F)F)cc(C(F)(F)F)c1`: the 50% inhibitory concentration (IC50) was 8.62 µM, the IC90 stood at 11 µM and the 50% cytotoxic concentration (CC50) came out at 27.4 µM.

Turning to `Cc1c(CN2CCC(CO)(CCOc3ccccc3)CC2)[nH]c2ccc(Cl)cc12`, the IC50 was 4.57 µM, the concentration for an effect of 90% (IC90) is 5.33 µM and the CC50 was 15.6 µM.

Take `O=C(CSc1nnc(-c2ccco2)o1)c1ccccc1Cl`: the IC90 is over 100 µM.

As to `COc1ccc(N2Cc3ccccc3C2)cc1Cl`, the 90% effect concentration (IC90) was over 100 µM.

As for `Cc1c(C(=O)N2CCCCC2)sc(NC(=O)C23CC4CC(CC(C4)C2)C3)c1C#N`, the IC50 was 40.8 µM and the IC90 was over 100 µM.

Take `CCOc1ccc(NC(=O)CCn2cccc2)cc1`: the IC90 was over 100 µM.

For the compound `N#CC(C(=O)C12CC3CC(CC(C3)C1)C2)c1nc2ccccc2[nH]1` (centres undefined), the half-inhibitory concentration (IC50) was 9.8 µM, the IC90 is over 100 µM and the CC50 is over 40 µM.

On to `COc1ccc(NCc2nc3ccccc3n2CCOc2ccc(C)cc2)cc1`, for which the IC50 was 17.8 µM, the IC90 was found to be 26.2 µM and the CC50 was 26.2 µM.

For the compound `CCN(CCCCN1C(=O)c2ccccc2C1=O)c1ccc2c(c1)C(=O)N(C)C2=O`, the half-inhibitory concentration (IC50) was 12 µM and the concentration for an effect of 90% (IC90) is over 100 µM.

With `CC(C)(C)Nc1nc(NC(C)(C)C)nc(-n2ccnc2)n1`, the IC50 was 11.4 µM and the 90% effect concentration (IC90) was 13.1 µM.
